From US20220144815A1, “1,3,4-OXADIAZOLES AND THEIR DERIVATIVES AS NEW ANTIFUNGAL AGENTS” (Bayer Aktiengesellschaft, priority 2018, published 2022) come the findings set out here.

The nature of data set [1]: Log P by HPLC on reversed phase columns, method [a] (EEC directive 79/831 Annex V.A8). It counts as physicochemical. The following applies: reversed phase HPLC column. The essentials: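 Log P calibrated with C3–C16 straight-chain alkan-2-ones of known Log P, interpolating linearly between retention times. Method per EEC 79/831 Annex V.A8: reversed-phase LC-UV in the acidic range, water/0.1% formic acid and acetonitrile gradient from 10% to 95% acetonitrile.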

For data set [2], the system named is Colletotrichum lindemuthianum. Kind of data set: Example B: in vitro cell test, spore germination and mycelium growth in liquid culture. In kind it is cell-based. Particulars: 144 h, 20 ppm of tested compound, 6 days incubation, read-out: efficacy (inhibition of fungal growth). The essentials:
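Compounds in DMSO (final ≤1%) added to glucose/peptone/yeast extract liquid medium containing C. lindemuthianum spores. After 6 days incubation, mycelium growth measured spectrometrically; inhibition calculated from absorbance versus compound-free control wells.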

Another data set deals with Botrytis cinerea. In words: Example C: in vivo preventive test (grey mould) on gherkin or cabbage. The following applies: 500 ppm of active ingredient, preventive spray, evaluated 4 to 5 days after inoculation, read-out: efficacy. The protocol: Solvent: 5% by volume of dimethyl sulfoxide • 10% by volume of acetone Emulsifier: 1 μl of Tween® 80 per mg of active ingredient The tested compounds were made soluble and homogenized in a mixture of dimethyl sulfoxide/acetone/Tween® 80 and then diluted in water to the desired concentration. The young plants of gherkin or cabbage were treated by spraying the tested compound prepared as described above. Control plants were treated only with an aqueous solution of acetone/dimethyl sulfoxide/Tween® 80. After 24 hours, the plants were contaminated by spraying the leaves with an aqueous suspension of Botrytis cinerea spores. The contaminated gherkin plants were incubated for 4 to 5 days at 17° C. and at 90% relative humidity. The contaminated cabbage plants were incubated for 4 to 5 days at 20° C. and at 100% relative humidity. The test was evaluated 4 to 5 days after the inoculation. 0% means an efficacy which corresponds to that of the control plants while an efficacy of 100% means that no disease was observed.

For another data set, the system named is Alternaria brassicae. In words: Example E: in vivo preventive test (cabbage). The following applies: 144 h, 500 ppm of tested compound, preventive spray, evaluated 6 days after inoculation, read-out: efficacy. The protocol:
Solvent: 5% by volume of dimethyl sulfoxide • 10% by volume of acetone Emulsifier: 1 μL of Tween® 80 per mg of active ingredient The tested compounds were made soluble and homogenized in a mixture of Dimethyl sulfoxide/Acetone/Tween® 80 and then diluted in water to the desired concentration. The young plants of cabbage were treated by spraying the tested compound prepared as described above. Control plants were treated only with an aqueous solution of Acetone/Dimethyl sulfoxide/Tween® 80. After 24 hours, the plants were contaminated by spraying the leaves with an aqueous suspension of Alternaria brassicae spores. The contaminated cabbage plants were incubated for 6 days at 20° C. and at 100% relative humidity. The test was evaluated 6 days after the inoculation. 0% means an efficacy which corresponds to that of the control plants while an efficacy of 100% means that no disease was observed.

The test system of another data set is Puccinia recondita. In words: Example D: in vivo preventive test (brown rust on wheat). The following applies: 264 h, 500 ppm of tested compound, preventive spray, evaluated 11 days after inoculation, read-out: efficacy. The protocol: Solvent: 5% by volume of dimethyl sulfoxide • 10% by volume of acetone Emulsifier: 1 μL of Tween® 80 per mg of active ingredient The tested compounds were made soluble and homogenized in a mixture of dimethyl sulfoxide/acetone/Tween® 80 and then diluted in water to the desired concentration. The young plants of wheat were treated by spraying the tested compound prepared as described above. Control plants were treated only with an aqueous solution of acetone/dimethyl sulfoxide/Tween® 80. After 24 hours, the plants were contaminated by spraying the leaves with an aqueous suspension of Puccinia recondita spores. The contaminated wheat plants were incubated for 24 hours at 20° C. and at 100% relative humidity and then for 10 days at 20° C. and at 70-80% relative humidity. The test was evaluated 11 days after the inoculation. 0% means an efficacy which corresponds to that of the control plants while an efficacy of 100% means that no disease was observed.

The next data set deals with Phakopsora pachyrhizi. In words: Example F: in vivo preventive test (soybeans), DMSO/acetone/Tween 80. The following applies: 288 h, 500 ppm of tested compound, preventive spray, soybean, evaluated 12 days after inoculation, read-out: efficacy. The method, boiled down: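 Compounds in DMSO/acetone/Tween 80, diluted in water, were sprayed preventively onto young plants, which were spore-inoculated 24 h later. Plants were held 24 h at 24 °C and 100% RH, then 11 days at 24 °C and 70–80% RH. Scored 12 days post-inoculation: 0% = control-level disease, 100% = no disease.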

The mark [3] stands for this setting: log P determined according to method [a] (HPLC on reversed phase columns), read-out: logP.
Setting [4] is: method [a], HPLC on reversed phase columns, read-out: logP.

SMILES strings stand for the structures. Read-outs that look alike come from different tables or passages of the source.

In the case of `CC(Sc1ncc(-c2nnc(C(F)F)o2)cn1)c1ccccc1` (racemic) [I.123, 5-[5-(difluoromethyl)-1,3,4-oxadiazol-2-yl]-2-{[(1RS)-1-phenylethyl]sulfanyl}pyrimidine], the chromatographic logP in data set [1] (setting [3]) was 3.72. Further, the inhibition of growth at 20 µg/mL in data set [2] lay in the range of 90 to 100%. Further, the pest or weed control at 500 ppm in the data set on Botrytis cinerea fell in the range of 90 to 100%.
On to `Nc1ccc(-c2nnc(C(F)F)o2)cn1` [I.030, 5-[5-(difluoromethyl)-1,3,4-oxadiazol-2-yl]pyridin-2-amine], for which the pest or weed control at 500 ppm in the data set with Botrytis cinerea fell in the range of 80 to 89%.
`CC(=O)Nc1ccc(-c2nnc(C(F)F)o2)cn1` [I.034, N-{5-[5-(difluoromethyl)-1,3,4-oxadiazol-2-yl]pyridin-2-yl}acetamide]: the pest or weed control at 500 ppm in the data set on Botrytis cinerea is 80 to 89%.
Consider `CC1(C(=O)Nc2ccc(-c3nnc(C(F)F)o3)cn2)CC1` [I.045, N-{5-[5-(difluoromethyl)-1,3,4-oxadiazol-2-yl]pyridin-2-yl}-1-methylcyclopropanecarboxamide], for which the pest or weed control at 500 µg/mL in the data set on Alternaria brassicae lay within 90 to 100%. Moreover, the pest or weed control at 500 ppm in the data set with Botrytis cinerea lay within 90 to 100%.
In the case of `O=C(Cc1ccccc1)Nc1ccc(-c2nnc(C(F)F)o2)cn1` [I.050, N-{5-[5-(difluoromethyl)-1,3,4-oxadiazol-2-yl]pyridin-2-yl}-2-phenylacetamide], in the data set with Botrytis cinerea, the pest or weed control at 500 ppm was 80 to 89%.
For `Fc1ccccc1Nc1ccc(-c2nnc(C(F)(F)Cl)o2)cn1` [I.053, 5-{5-[chloro(difluoro)methyl]-1,3,4-oxadiazol-2-yl}-N-(2-fluorophenyl)pyridin-2-amine], the pest or weed control at 500 ppm in the data set on Botrytis cinerea is 80 to 89%.
For the molecule `FC(F)c1nnc(-c2cnc(Nc3ccccc3)nc2)o1` [I.076, 5-[5-(difluoromethyl)-1,3,4-oxadiazol-2-yl]-N-phenylpyrimidin-2-amine], in the data set on Alternaria brassicae, the pest or weed control at 500 µg/mL was 90 to 100%. Moreover, the pest or weed control at 500 ppm in the data set on Botrytis cinerea lay within 90 to 100%.
Take `Fc1ccc(-c2ncc(-c3nnc(C(F)F)o3)cn2)cc1` [I.077, 5-[5-(difluoromethyl)-1,3,4-oxadiazol-2-yl]-2-(4-fluorophenyl)pyrimidine]: the inhibition of growth at 20 µg/mL in data set [2] was 90 to 100%. In the data set on Botrytis cinerea, the pest or weed control at 500 ppm lay within 70 to 79%.
Regarding `Fc1ccccc1Nc1ncc(-c2nnc(C(F)F)s2)cn1` [I.113, 5-[5-(difluoromethyl)-1,3,4-thiadiazol-2-yl]-N-(2-fluorophenyl)pyrimidin-2-amine], the chromatographic logP in data set [1] (setting [3]) came out at 2.77. Also, the pest or weed control at 500 µg/mL in the data set with Alternaria brassicae lay in the range of 90 to 100%. The pest or weed control at 500 ppm in the data set with Botrytis cinerea fell in the range of 90 to 100%.
Regarding `Fc1ccccc1Nc1ncc(-c2nnc(C(F)(F)F)o2)cn1` [I.116, N-(2-fluorophenyl)-5-[5-(trifluoromethyl)-1,3,4-oxadiazol-2-yl]pyrimidin-2-amine], the chromatographic logP in data set [1] (setting [3]) stood at 2.99. Also, the pest or weed control at 500 ppm in the data set on Botrytis cinerea lay within 80 to 89%.
For `Cc1ccc(C2(Nc3ncc(-c4nnc(C(F)F)o4)cn3)CC2)cc1` [I.133, 5-[5-(difluoromethyl)-1,3,4-oxadiazol-2-yl]-N-[1-(4-methylphenyl)cyclopropyl]pyrimidin-2-amine], the chromatographic logP in data set [1] (setting [3]) was 3. In addition, the results for the pest or weed control at 500 µg/mL with Puccinia recondita, in the data set on Alternaria brassicae and in the data set with Phakopsora pachyrhizi were 90 to 100%, 70 to 79% and 90 to 100%, respectively.
Take `FC(F)c1nnc(-c2cnc(NC3(c4ccccn4)CCC3)nc2)o1` [I.137, 5-[5-(difluoromethyl)-1,3,4-oxadiazol-2-yl]-N-[1-(pyridin-2-yl)cyclobutyl]pyrimidin-2-amine]: the chromatographic logP in data set [1] (setting [3]) came to 1.2. Further, the pest or weed control at 500 µg/mL in the data set on Puccinia recondita, in the data set with Alternaria brassicae and in the data set with Phakopsora pachyrhizi was 90 to 100% each time.
Consider `CC(C)(Nc1ncc(-c2nnc(C(F)F)o2)cn1)c1ccc(F)cc1` [I.150, 5-[5-(difluoromethyl)-1,3,4-oxadiazol-2-yl]-N-[2-(4-fluorophenyl)propan-2-yl]pyrimidin-2-amine], for which the chromatographic logP in data set [1] (Method A: LC-UV, acidic range, 0.1% formic acid in water and acetonitrile, read-out: Log P) amounted to 3.26. The inhibition of growth at 20 µg/mL in data set [2] was in the range of 80 to 89%. For the same molecule, the pest or weed control at 500 µg/mL in the data set on Puccinia recondita was 90 to 100%; in the data set with Alternaria brassicae, 70 to 79%; in the data set on Phakopsora pachyrhizi, 90 to 100%.
As for `FC(F)c1nnc(-c2cnc(NC3(c4ccccc4)CCCC3)nc2)o1` [I.153, 5-[5-(difluoromethyl)-1,3,4-oxadiazol-2-yl]-N-(1-phenylcyclopentyl)pyrimidin-2-amine], the chromatographic logP in data set [1] (setting [3]) came out at 3.57. For the same molecule, the pest or weed control at 500 ppm with Botrytis cinerea was 70 to 79%.
Turning to `COc1cccc(C2(Nc3ncc(-c4nnc(C(F)F)o4)cn3)CC2)c1` [I.156, 5-[5-(difluoromethyl)-1,3,4-oxadiazol-2-yl]-N-[1-(3-methoxyphenyl)cyclopropyl]pyrimidin-2-amine], the chromatographic logP in data set [1] (setting [3]) is 2.62. For the same molecule, the pest or weed control at 500 µg/mL in the data set on Puccinia recondita, with Alternaria brassicae and in the data set on Phakopsora pachyrhizi was 90 to 100% each time.
As for `COc1ccc(C2(Nc3ncc(-c4nnc(C(F)F)o4)cn3)CC2)cc1` [I.157, 5-[5-(difluoromethyl)-1,3,4-oxadiazol-2-yl]-N-[1-(4-methoxyphenyl)cyclopropyl]pyrimidin-2-amine], the chromatographic logP in data set [1] (setting [3]) is 2.62. Also, the inhibition of growth at 20 µg/mL in data set [2] lay within 80 to 89%. Besides, the pest or weed control at 500 µg/mL with Puccinia recondita is 90 to 100%; with Alternaria brassicae, 70 to 79%; in the data set on Phakopsora pachyrhizi it was 90 to 100%.
Consider `COc1ccccc1CN(OC)c1ncc(-c2nnc(C(F)F)o2)cn1` [I.161, N-{5-[5-(difluoromethyl)-1,3,4-oxadiazol-2-yl]pyrimidin-2-yl}-N-(2-methoxybenzyl)-O-methylhydroxylamine], for which, in data set [1] (setting [3]), the chromatographic logP turned out to be 2.97. Also, the pest or weed control at 500 ppm in the data set on Botrytis cinerea is 70 to 79%.
Regarding `FC(F)c1nnc(-c2cnc(Nc3ccccc3-c3ccccc3)nc2)o1` [I.166, N-([biphenyl]-2-yl)-5-[5-(difluoromethyl)-1,3,4-oxadiazol-2-yl]pyrimidin-2-amine], in data set [1] (setting [3]), the chromatographic logP was found to be 3.37. Also, the inhibition of growth at 20 µg/mL in data set [2] was in the range of 80 to 89%. Moreover, the pest or weed control at 500 µg/mL in the data set on Puccinia recondita lay in the range of 90 to 100%; with Alternaria brassicae, 70 to 79%; in the data set on Phakopsora pachyrhizi, 90 to 100%.
In the case of `FC(F)c1nnc(-c2cnc(NC3(c4cccc(Cl)c4)CCC3)nc2)o1` [I.175, N-[1-(3-chlorophenyl)cyclobutyl]-5-[5-(difluoromethyl)-1,3,4-oxadiazol-2-yl]pyrimidin-2-amine], the chromatographic logP in data set [1] (setting [4]) came to 3.67. Moreover, the inhibition of growth at 20 µg/mL in data set [2] was 80 to 89%. Besides, the pest or weed control at 500 µg/mL in the data set on Puccinia recondita fell in the range of 90 to 100%; in the data set with Alternaria brassicae it was 70 to 79%.
As for `Fc1cccc(F)c1C1(Nc2ncc(-c3nnc(C(F)F)o3)cn2)CCC1` [I.177, 5-[5-(difluoromethyl)-1,3,4-oxadiazol-2-yl]-N-[1-(2,6-difluorophenyl)cyclobutyl]pyrimidin-2-amine], the chromatographic logP in data set [1] (setting [4]) came to 3.5. Besides, the inhibition of growth at 20 µg/mL in data set [2] lay within 90 to 100%. Moreover, the pest or weed control at 500 µg/mL lay within 90 to 100% with Puccinia recondita, 80 to 89% with Alternaria brassicae and 90 to 100% with Phakopsora pachyrhizi.
